In the NIST ThermoML archive (doi:10.1016/j.jct.2005.02.003):

Assay: molar heat capacity at constant pressure
Conditions: 101.33 kPa

CC(C)COC(C)(C)C [isobutyl tert-butyl ether]
molar heat capacity at constant pressure [J/K/mol]
Conditions | Crystal | Liquid
140.78 K | 140.8 | –
141.71 K | 142 | –
142.63 K | 142.5 | –
143.56 K | 143.4 | –
144.49 K | 143.5 | –
145.41 K | 144.2 | –
146.33 K | 144.7 | –
147.24 K | 145.3 | –
149.06 K | 146.4 | –
149.71 K | – | 210
150 K | 147.3 | –
150.86 K | 147.4 | –
151.76 K | 148.4 | –
151.77 K | – | 210.7
152.66 K | 149 | –
153.55 K | 149.9 | –
153.82 K | – | 211.9
155.87 K | – | 212.5
156.22 K | 153.2 | –
157.08 K | 153.7 | –
157.9 K | – | 213.3
157.95 K | 155.8 | –
159.92 K | – | 214
160 K | 152.6 | –
161.93 K | – | 214.7
162.33 K | 153.6 | 214.8
163.93 K | – | 215.4
165.92 K | – | 216.2
167.9 K | – | 216.8
169.88 K | – | 217.5
170 K | – | 217.7
171.84 K | – | 218.3
173.8 K | – | 219.3
175.75 K | – | 220.1
177.69 K | – | 220.3
179.63 K | – | 221.1
180 K | – | 221.4
181.56 K | – | 221.9
183.49 K | – | 222.7
185.4 K | – | 223.2
187.31 K | – | 224.1
189.21 K | – | 224.7
190 K | – | 225
191.11 K | – | 225.4
193 K | – | 226
194.89 K | – | 226.8
196.77 K | – | 227.4
198.65 K | – | 227.8
200 K | – | 228.5
200.52 K | – | 228.5
201.82 K | – | 229.6
202.53 K | – | 229.1
203.25 K | – | 229.2
203.96 K | – | 229.6
204.67 K | – | 230.4
205.41 K | – | 230.1
206.12 K | – | 230.8
206.84 K | – | 231.4
207.55 K | – | 231.1
208.27 K | – | 231.1
208.98 K | – | 232.1
209.69 K | – | 232
210 K | – | 232.1
210.4 K | – | 232.3
211.12 K | – | 232.6
211.83 K | – | 233
212.55 K | – | 233.1
213.26 K | – | 233.6
213.97 K | – | 233.7
214.69 K | – | 233.6
215.4 K | – | 234.1
216.12 K | – | 234.1
216.87 K | – | 233.8
217.59 K | – | 234.2
218.3 K | – | 234.6
219.02 K | – | 235.9
219.73 K | – | 236
220 K | – | 235.8
220.45 K | – | 236.2
221.17 K | – | 236
221.89 K | – | 237
222.6 K | – | 237
223.33 K | – | 236.7
224.04 K | – | 237.6
224.76 K | – | 237.8
225.48 K | – | 237.8
226.2 K | – | 238
226.92 K | – | 238.6
227.65 K | – | 238.6
228.42 K | – | 239.6
229.14 K | – | 239.3
229.86 K | – | 239.6
230 K | – | 239.7
230.59 K | – | 239.5
231.31 K | – | 240.6
232.04 K | – | 240.4
233.48 K | – | 240.4
234.2 K | – | 240.9
235.65 K | – | 242
236.37 K | – | 242.7
237.1 K | – | 242.3
237.82 K | – | 242.2
238.55 K | – | 243.6
239.27 K | – | 243.4
240 K | – | 243.7
